{
  "source": "PubChem BioAssay AID743153",
  "about": "(The Scripps Research Institute Molecular Screening Center, 2013)",
  "biological_target": "methionyl-tRNA synthetase (Trypanosoma brucei brucei)",
  "assay": "T. brucei MetRS inhibitors, late-stage follow-up, biochemical, luminescence, dose response, round 1 (AID 743153)",
  "conditions": "recombinant T. brucei MetRS, luminescence (ATP depletion)",
  "note": "Active and inactive are the calls of the source. How the calls were made is not given here.",
  "data": [
    {"smiles": "O=C(NCCc1nc2ccccc2[nH]1)c1ccc(Cl)c(Cl)c1", "values": [
      {"measurement": "IC50", "result": 0.609, "unit": "µM"}
    ]},
    {"smiles": "O=C(NCCc1nc2ccccc2[nH]1)c1c(F)cccc1F", "values": [
      {"measurement": "IC50", "result": "> 119 µM (inactive)"}
    ]},
    {"smiles": "COc1ccc(NC(=O)C2CC(=O)n3c(nc4ccccc43)N2)cc1", "note": "(stereo unspecified)", "values": [
      {"measurement": "IC50", "result": "> 119 µM (inactive)"}
    ]},
    {"smiles": "CCN(CC)C(=O)C(=O)c1cn(CC(=O)Nc2cccc(OC)c2)c2ccccc12", "values": [
      {"measurement": "IC50", "result": 1.84, "unit": "µM"}
    ]},
    {"smiles": "COCCc1nc2ccc(C(=O)NCCc3nc4ccc(OC)cc4[nH]3)cc2o1", "values": [
      {"measurement": "IC50", "result": "> 39.5 µM (inactive)"}
    ]},
    {"smiles": "CCCCn1c(CCNC(=O)c2ccc(F)cc2)nc2ccccc21", "values": [
      {"measurement": "IC50", "result": "> 39.5 µM (inactive)"}
    ]},
    {"smiles": "O=C(Cn1cc(C(=O)c2ccco2)c2ccccc21)Nc1cccc(C(F)(F)F)c1", "values": [
      {"measurement": "IC50", "result": 1.39, "unit": "µM"}
    ]},
    {"smiles": "O=C(NCCc1nc2ccccc2[nH]1)c1ccc(Cl)cc1", "values": [
      {"measurement": "IC50", "result": 4.86, "unit": "µM"}
    ]},
    {"smiles": "Cc1ccc2[nH]c3nc(SCC(=O)Nc4ccc(C(F)(F)F)cc4)nnc3c2c1", "values": [
      {"measurement": "IC50", "result": "> 119 µM (inactive)"}
    ]},
    {"smiles": "CC(=O)N(CCc1ccccc1)C1CC(=O)N(c2ccc(Br)cc2)C1=O", "note": "(stereo unspecified)", "values": [
      {"measurement": "IC50", "result": "> 39.5 µM (inactive)"}
    ]},
    {"smiles": "CCC(=O)c1cn(CC(=O)Nc2cccc(C(F)(F)F)c2)c2ccccc12", "values": [
      {"measurement": "IC50", "result": "> 39.5 µM (inactive)"}
    ]},
    {"smiles": "CCc1ccc2c(c1)c1nnc(SCC(=O)Nc3ccc4c(c3)OCO4)nc1n2C", "values": [
      {"measurement": "IC50", "result": "> 119 µM (inactive)"}
    ]},
    {"smiles": "CC1Cc2ccccc2N1C(=O)Cn1cc(C(=O)C(=O)N2CCOCC2)c2ccccc21", "note": "(stereo unspecified)", "values": [
      {"measurement": "IC50", "result": "> 119 µM (inactive)"}
    ]},
    {"smiles": "Cn1c(CCNC(=O)c2ccc(Cl)cc2)nc2ccccc21", "values": [
      {"measurement": "IC50", "result": "> 39.5 µM (inactive)"}
    ]},
    {"smiles": "Cc1cccc2[nH]c(CCN(C)C(=O)c3cccc(C4CCNC4)c3)nc12", "note": "(stereo unspecified)", "values": [
      {"measurement": "IC50", "result": "> 119 µM (inactive)"}
    ]},
    {"smiles": "COc1ccccc1NC(=O)Cn1cc(C(=O)C(=O)N2CCOCC2)c2ccccc21", "values": [
      {"measurement": "IC50", "result": "> 119 µM (inactive)"}
    ]},
    {"smiles": "O=C(C(=O)N1CCOCC1)c1cn(CC(=O)N2CCCc3ccccc32)c2ccccc12", "values": [
      {"measurement": "IC50", "result": "> 13.2 µM (inactive)"}
    ]},
    {"smiles": "COc1ccc(CCN(C(=S)Nc2ccccc2)C2CC(=O)N(c3ccc(Cl)cc3)C2=O)cc1", "note": "(stereo unspecified)", "values": [
      {"measurement": "IC50", "result": 0.321, "unit": "µM"}
    ]},
    {"smiles": "COc1ccc(NC(=O)CSc2nnc3c4cc(C)ccc4n(C)c3n2)cc1", "values": [
      {"measurement": "IC50", "result": "> 119 µM (inactive)"}
    ]},
    {"smiles": "CC(=O)c1cn(CC(=O)Nc2cccc(C(F)(F)F)c2)c2ccccc12", "values": [
      {"measurement": "IC50", "result": 6.2, "unit": "µM"}
    ]},
    {"smiles": "Cc1cccc2[nH]c(C3CCCN(C(=O)c4cccc5cccnc45)C3)nc12", "note": "(stereo unspecified)", "values": [
      {"measurement": "IC50", "result": "> 39.5 µM (inactive)"}
    ]},
    {"smiles": "CC(C)c1nc2ccc(C(=O)N(C)CCc3nc4ccc(F)cc4[nH]3)cc2o1", "values": [
      {"measurement": "IC50", "result": "> 119 µM (inactive)"}
    ]},
    {"smiles": "O=C(CSC1CC(=O)N(c2cccc(Cl)c2)C1=O)Nc1ccc(Br)cc1", "note": "(stereo unspecified)", "values": [
      {"measurement": "IC50", "result": "inactive"}
    ]},
    {"smiles": "O=C(Cn1cc(C(=O)C(=O)N2CCCC2)c2ccccc21)Nc1ccccc1", "values": [
      {"measurement": "IC50", "result": "> 119 µM (inactive)"}
    ]},
    {"smiles": "CCN(CC)C(=O)C(=O)c1cn(CC(=O)N2CCCc3ccccc32)c2ccccc12", "values": [
      {"measurement": "IC50", "result": "> 119 µM (inactive)"}
    ]},
    {"smiles": "CC(=O)N(CCc1ccccc1)C1CC(=O)N(c2ccc(Cl)cc2)C1=O", "note": "(stereo unspecified)", "values": [
      {"measurement": "IC50", "result": "> 39.5 µM (inactive)"}
    ]},
    {"smiles": "Cc1cc2cc(C(=O)N3CCCC(c4nc5ccccc5[nH]4)C3)ccc2o1", "note": "(stereo unspecified)", "values": [
      {"measurement": "IC50", "result": "> 39.5 µM (inactive)"}
    ]},
    {"smiles": "O=C(Cn1cc(C(=O)C(=O)N2CCOCC2)c2ccccc21)NCC1CCCO1", "note": "(stereo unspecified)", "values": [
      {"measurement": "IC50", "result": "> 119 µM (inactive)"}
    ]},
    {"smiles": "O=C1CC(NCCc2ccccc2)C(=O)N1c1ccc(Br)cc1", "note": "(stereo unspecified)", "values": [
      {"measurement": "IC50", "result": "> 119 µM (inactive)"}
    ]},
    {"smiles": "O=C(NCCc1nc2ccccc2[nH]1)c1ccc(Cl)cc1Cl", "values": [
      {"measurement": "IC50", "result": 0.905, "unit": "µM"}
    ]},
    {"smiles": "CCN(CC)C(=O)C(=O)c1cn(CC(=O)Nc2ccccc2OC)c2ccccc12", "values": [
      {"measurement": "IC50", "result": "> 119 µM (inactive)"}
    ]},
    {"smiles": "O=C(Cn1cc(C(=O)C(=O)N2CCOCC2)c2ccccc21)NCc1ccccc1", "values": [
      {"measurement": "IC50", "result": "> 119 µM (inactive)"}
    ]},
    {"smiles": "O=C(Cn1cc(C(=O)COc2ccccc2)c2ccccc21)Nc1cccc(C(F)(F)F)c1", "values": [
      {"measurement": "IC50", "result": "> 39.5 µM (inactive)"}
    ]},
    {"smiles": "O=C(Cn1cc(C(=O)c2ccccc2)c2ccccc21)Nc1cccc(C(F)(F)F)c1", "values": [
      {"measurement": "IC50", "result": 6.8, "unit": "µM"}
    ]},
    {"smiles": "Cc1ccc(CNC(=O)CSc2nnc3c(n2)[nH]c2ccc(C)cc23)cc1", "values": [
      {"measurement": "IC50", "result": "inactive"}
    ]},
    {"smiles": "CCc1ccc2[nH]c3nc(SCC(=O)NCc4cccc(OC)c4)nnc3c2c1", "values": [
      {"measurement": "IC50", "result": "> 39.5 µM (inactive)"}
    ]},
    {"smiles": "O=C(Cn1cc(C(=O)C2CC2)c2ccccc21)Nc1cccc(C(F)(F)F)c1", "values": [
      {"measurement": "IC50", "result": "inactive"}
    ]},
    {"smiles": "CNC(=S)N(CCc1ccccc1)C1CC(=O)N(c2ccc(Br)cc2)C1=O", "note": "(stereo unspecified)", "values": [
      {"measurement": "IC50", "result": 0.192, "unit": "µM"}
    ]},
    {"smiles": "COc1cccc(NC(=O)C2CC(=O)n3c(nc4ccccc43)N2)c1", "note": "(stereo unspecified)", "values": [
      {"measurement": "IC50", "result": "inactive"}
    ]},
    {"smiles": "Cc1cccc(NC(=O)C2CC(=O)n3c(nc4ccccc43)N2)c1", "note": "(stereo unspecified)", "values": [
      {"measurement": "IC50", "result": "> 39.5 µM (inactive)"}
    ]},
    {"smiles": "Cc1ccc(C(=O)NCCc2nc3ccccc3[nH]2)cc1[N+](=O)[O-]", "values": [
      {"measurement": "IC50", "result": 2.37, "unit": "µM"}
    ]},
    {"smiles": "CCN(CC)C(=O)C(=O)c1cn(CC(=O)Nc2cccc(C(F)(F)F)c2)c2ccccc12", "values": [
      {"measurement": "IC50", "result": 0.11, "unit": "µM"}
    ]},
    {"smiles": "O=C(Nc1ccc(F)c(Cl)c1)C1CC(=O)n2c(nc3ccccc32)N1", "note": "(stereo unspecified)", "values": [
      {"measurement": "IC50", "result": 1.18, "unit": "µM"}
    ]},
    {"smiles": "COc1ccccc1NC(=O)CSc1nnc2c(n1)[nH]c1ccc(C)cc12", "values": [
      {"measurement": "IC50", "result": "inactive"}
    ]},
    {"smiles": "O=C(CSc1nnc2c(n1)[nH]c1ccc(Br)cc12)NCc1ccccc1", "values": [
      {"measurement": "IC50", "result": 0.626, "unit": "µM"}
    ]},
    {"smiles": "COc1ccc(CCN(C(=O)c2cccc(F)c2)C2CC(=O)N(c3ccc(Br)cc3)C2=O)cc1", "note": "(stereo unspecified)", "values": [
      {"measurement": "IC50", "result": "> 119 µM (inactive)"}
    ]},
    {"smiles": "CCN(CCc1nc2ccc(C)cc2[nH]1)C(=O)c1ccc2ncccc2c1", "values": [
      {"measurement": "IC50", "result": "> 119 µM (inactive)"}
    ]},
    {"smiles": "CCN(C(=O)Cn1cc(C(=O)C(=O)N2CCOCC2)c2ccccc21)c1ccccc1", "values": [
      {"measurement": "IC50", "result": "> 119 µM (inactive)"}
    ]},
    {"smiles": "Cc1ccc(C(=O)NCCc2nc3ccccc3[nH]2)cc1C", "values": [
      {"measurement": "IC50", "result": "> 13.2 µM (inactive)"}
    ]},
    {"smiles": "CCN(CC)C(=O)C(=O)c1cn(CC(=O)N(CC)c2ccccc2)c2ccccc12", "values": [
      {"measurement": "IC50", "result": "> 39.5 µM (inactive)"}
    ]},
    {"smiles": "Cc1cccc(C(=O)NCCc2nc3ccccc3n2CCOc2ccccc2)c1", "values": [
      {"measurement": "IC50", "result": "> 39.5 µM (inactive)"}
    ]}
  ]
}
